The text below walks through data of patent US20130158070A1, “CONJUGATES OF POLYUNSATURATED FATTY ACIDS AND AMINE-CONTAINING COMPOUNDS AND USES THEREOF” (priority 2010, published 2013).

Series [1] relates to TNBS-induced ulcerative colitis. Put plainly: TNBS-induced colitis (ulcerative colitis) in rats. It is filed as in vivo. The protocol: Exemplary conjugates were tested for the effect on inflammatory bowel disease IBD (ulcerative colitis) in rats.
Briefly, ulcerative colitis was induced by tri-nitrobenzene sulfunic acid (TNBS) as described in the literature. Rats were divided into 4 groups, (−) sham (healthy), (+) control ulcerative colitis (UC, not treated), UC treated with the tested conjugate (25 mg/kg), and UC treated with 5-amino salicylic acid (5-ASA 25 mg/kg). The tested conjugate and 5-ASA were administered rectally during all the period of the experiment. At the end of the experiment animals were sacrificed and the colon was isolated to test the severity of the inflammation. The severity of the inflammation was tested by measurement of the myeloperoxidase activity (MPO activity) in the inflamed area of the colon.

The subject of a further series is DNBS-induced colitis. Put plainly: DNBS-induced experimental colitis in mice, oral administration. It is filed as in vivo. As to conditions: day four after DNBS, MWL001 50 mg/kg oral daily. The protocol: In this study, the effect of MWL001 on pro-inflammatory mediators in DNBS-induced experimental colitis in mice was evaluated. In particular it was observed that there was no expression of TNF-α, CD4, TGF-13, CD25 in the colon tissue from sham-treated mice. MWL001 and DEX were administered orally and daily starting at six hours after the DNBS challenge.
Colitis was induced with a very low dose of 2,4-dinitrobenzene sulfonic acid (DNBS) (4 mg per mouse) by using a modification of the method first described in mice. […] Mice were anesthetized by Enflurane. DNBS (4 mg in 100 μl of 50% ethanol) was injected into the rectum through a catheter inserted 4.5 cm proximally to the anus. The carrier alone (100 μl of 50% ethanol) was administered in control experiments. Thereafter, the animals were kept for 15 minutes in a Trendelenburg position to avoid reflux. […] On Day four, the animals were weighed and anaesthetized with chloral hydrate, and their abdomen was opened by a midline incision. The colon was removed, freed from surrounding tissues, opened along the antimesenteric border and processed for histology.
TNF-α and IL-6 levels were evaluated and colon tissues collected at four days after DNBS administration. Briefly, portions of terminal colon were homogenized as previously described in phosphate-buffered saline (PBS, ICN Biomedicals, Milan, Italy) containing two mmol/L of phenyl-methyl sulfonyl fluoride (PMSF, Sigma Chemical Co.). The assay was carried out using a colorimetric, commercial kit (R&D system Milan, Italy) according to the manufacturer instructions. All cytokines determinations were performed in duplicate serial dilutions.
At four days after DNBS administration, colon tissues were fixed in 10% (w/v) PBS-buffered formaldehyde and 7 μm sections were prepared from paraffin embedded tissues. After deparaffinization, endogenous peroxidase was quenched with 0.3% (v/v) hydrogen peroxide in 60% (v/v) methanol for 30 min. The sections were permeabilized with 0.1% (w/v) Triton X-100 in PBS for 20 min. Non-specific adsorption was minimized by incubating the section in 2% (v/v) normal goat serum in PBS for 20 min. Endogenous biotin or avidin binding sites were blocked by sequential incubation for 15 min with biotin and avidin (Vector Laboratories, Burlingame, Calif.), respectively. Sections were incubated overnight with: 1) purified polyclonal antibody directed towards CD4 (Santa Cruz Biotechnology, 1:500 in PBS, v/v) or 2) with purified anti-CD25 (Santa Cruz Biotecnology 1:500 in PBS, w/v) or 3) with anti- TNF-α polyclonal antibody (Santa Cruz Biotechnology, N-19:sc-1350, 1:500 in PBS, v/v) or 4) with anti-TGF-β polyclonal antibody (Santa Cruz, 1:500 in PBS, v/v).
Sections were washed with PBS, and incubated with a secondary antibody. Specific labelling was detected with a biotin-conjugated goat anti-rabbit IgG and avidin-biotin peroxidase complex (Vector Laboratories, Burlingame, Calif.).

Series [2] deals with oxazolone-induced allergic dermatitis. Put plainly: Murine oxazolone-induced allergic dermatitis. It is filed as in vivo, mice. An excerpt: An allergic form of contact dermatitis can be induced in mice by repeated epicutaneous application of the chemical sensitizer oxazolone. This leads to local augmented thickness and weight increase of the skin area where the rechallenge was applied; from the histological point of view, oxazolone-induced dermatitis is characterized by severe mononuclear cell infiltration of the dermis with in situ production of the type 1 proinflammatory cytokines TNF-alpha, IL-1alpha and IFN-gamma. These well-defined mechanistic pathways of inflammatory skin damage make oxazolone-dermatitis a useful in vivo tool for pathogenic studies and a pharmacodynamic parameter to screen drugs of potential utility in counteracting type 1 cytokine dependent cutaneous immunoinflammatory responses such as those found in some forms of bullous disorders, cutaneous vasculitis and psoriasis.
The efficacy of MWL001 in the treatment of Murine oxazolone-induced allergic dermatitis was evaluated. MWL001 and DEX were administered one hour after the second challenge with oxazolone.
The mice were sensitized on day 0 by a single application of 10 ∞l of 2% oxazolone (Sigma Chimica, Milan, Italy) in ethanol to the inner and outer surface of the left ear. The disease was elicited by local rechallenge on day 7 with 15% oxazolone. The right ear was treated with the vehicle of oxazolone (acetone). Eighteen hours after […] the mice are sacrificed under ether anesthesia and both the right and left ears were excised.
Inflammation was assessed as the percentage increase in ear thickness and/or ear weight in the treated left ear vs. the vehicle-treated right ear. Ear thickness was measured with a digital calliper. The extent of the inflammation was quantified as follows: ear swelling (%)=100×(a−b)/b, where a is thickness/weight of the left (treated) ear and b is the thickness/weight of the right (untreated) ear.
Ear tissue samples were fixed with 4% formaldehyde in phosphate-buffered saline (PBS) and embedded in paraffin. Thereafter, 6-μm sections were deparaffinized with xylene, stained with hematoxylin-eosin and observed with a Zeiss microscope (Jena, Germany).

Series [3] is described as follows: Acute intraperitoneal (IP) toxicity in the mouse. Conditions: both sexes, in vivo, single IP injection, male and female ICR mice, read-out: MTD (Maximum Tolerated Dose). The protocol:
The objective of this study was to determine the MTD (Maximum Tolerated Dose) and/or assess the potential toxic effects in terms of the MFD (Maximum Feasible Dose) following an acute intraperitoneal (IP) injection of the Test Item MWL002 (Batch No.: 201109) to male and female ICR mice, in consideration of its intended use as an anti-inflammatory and pain relief agent.
MWL002 (Batch No.: 201109) was injected at two dose levels of 1000 (corresponding to the MFD) and 200 mg/kg to two groups consisting of three male and three female ICR mice per group, by a single intraperitoneal (IP) injection. An additional equally-sized group was injected with vehicle and served as the Control group. Dosing was sequential using three male and three female mice per step at 14 days interval. The Test Item or Vehicle Control Dosing Solutions were freshly prepared by the Testing Facility on each day of dosing, by diluting the Test Item or Vehicle Control with Physiological Saline according to the appropriate dose level and a constant volume dosage of 4 ml/kg.

The mark [4] stands for this setting: eighteen hours after sensitization, given one hour after second oxazolone challenge.

Turning to `CCC=CCC=CCC=CCC=CCC=CCC=CCCC(=O)N1CC(O)CC1C(=O)O` (stereo not shown) [MWL001], the body weight entry in series [1] (UC rats, throughout assay period) is recorded as “no decrease”. Besides, in series [1] (rectal, 50 mg/kg as printed, compared to 5-ASA, inflamed colon), the “MPO activity (severity index)” value was “significant decrease”. The “colon morphology and inflammation signs (images)” value in series [1] (ulcerated colon segment, compared to non-treated or 5-ASA treated) is “normal clear anatomic morphology and a significant decrease in inflammation signs”. Besides, in the series on DNBS-induced colitis (colorimetric kit), the IL-6 colon levels result is recorded as “significant reduction” and the TNF-α colon levels entry is reported as “significant reduction”. Also, in the series on DNBS-induced colitis (immunostaining), the “expression of CD4 in colon tissue” value was “significantly reduced”, the “expression of CD25 in colon tissue” value is recorded as “significantly reduced”, the “expression of TGF-β in colon tissue” value is listed as “significantly reduced” and the “expression of TNF-α in colon tissue” value was “significantly reduced”. In addition, in series [2] (setting [4]), the ear thickness entry is “decreased ear thickness” and the ear weight entry is on record as “decreased ear weight”. Moreover, the “histology: ear thickness and inflammatory cells in epidermis and dermis” value in series [2] (hematoxylin and eosin stained sections) was “markedly reduced”.
With `CC/C=C\C/C=C\C/C=C\C/C=C\C/C=C\C/C=C\CCC(=O)NCCS(=O)(=O)O` [MWL002, N-docosa-4,7,10,13,16,19-hexaenoyl-taurine], the MTD in series [3] fell in the range of 200 to 1000 mg/kg.
